Laboratory results as given in US9867833B2, “Serine/threonine kinase inhibitors” (GENENTECH, INC., priority 2013, dated 2018).

What follows are compounds tested against human ERK-2 (Mitogen Activated Kinase 1) (Homo sapiens (Human), UniProt P28482) (assay: ERK-2 Enzymatic Assay). Conditions: human ERK-2 enzyme 5 nM, 25 μM ATP, S/T17 peptide substrate; isomer = configuration of CR2R3.
Format: biochemical
Method: Compounds were tested in an enzymatic assay using human ERK-2 (Mitogen Activated Kinase 1), recombinantly expressed as an n-terminal 6-His fusion protein in E. coli and corresponding to aa 8-360. […] Test compounds were diluted in DMSO in 3-fold serial dilutions at 100× final concentrations. […] The data collected from each well was fit to a straight line, and the resulting rates were used to calculate percent of control. Percent of control was plotted against compound concentration, and IC50 values were determined using a four-parameter fit.

Chain of human ERK-2 (Mitogen Activated Kinase 1) (P28482 8-360): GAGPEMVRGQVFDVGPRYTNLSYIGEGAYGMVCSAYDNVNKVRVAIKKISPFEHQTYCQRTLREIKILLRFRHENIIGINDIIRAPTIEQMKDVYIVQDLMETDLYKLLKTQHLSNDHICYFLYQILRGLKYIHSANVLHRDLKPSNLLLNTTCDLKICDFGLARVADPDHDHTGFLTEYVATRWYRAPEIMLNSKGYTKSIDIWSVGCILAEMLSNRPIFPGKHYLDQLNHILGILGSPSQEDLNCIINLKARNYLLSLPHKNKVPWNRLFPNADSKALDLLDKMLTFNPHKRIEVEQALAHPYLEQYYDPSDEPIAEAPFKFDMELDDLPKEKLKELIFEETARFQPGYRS

SMILES	IC50 [pM]
Cn1nccc1Nc1cc(-c2cc3n4c(nnc4c2)[C@@H](Cc2ccccc2)CO3)ccn1 [(R) I-38, 4-(3-benzyl-3,4-dihydro-5-oxa-1,2,2a^1-triazaacenaphthylen-7-yl)-N-(1-methyl-1H-pyrazol-5-yl)pyridin-2-amine]	20
CN1C(=O)C[C@@H](Cc2ccc(Cl)cc2)c2nnc3cc(-c4ccnc(Nc5ccnn5C)c4)cc1n23 [(R) I-40, 9-(4-chlorobenzyl)-6-methyl-4-(2-((1-methyl-1H-pyrazol-5-yl)amino)pyridin-4-yl)-8,9-dihydro-1,2,2a^1,6-tetraazabenzo[cd]azulen-7(6H)-one]	1350
Cn1nccc1Nc1nccc(-c2cc3n4c(nnc4c2)[C@@H](Cn2cc(Cl)cn2)CCO3)n1 [(R) I-42, (R)-4-(9-((4-chloro-1H-pyrazol-1-yl)methyl)-8,9-dihydro-7H-6-oxa-1,2,2a^1-triazabenzo[cd]azulen-4-yl)-N-(1-methyl-1H-pyrazol-5-yl)pyrimidin-2-amine]	79
COc1ncccc1C[C@@H]1CN(C)c2cc(-c3ccnc(Nc4ccnn4C)n3)cc3nnc1n23 [(R) I-43, 4-(3-((2-methoxypyridin-3-yl)methyl)-5-methyl-4,5-dihydro-3H-1,2,2a^1,5-tetraazaacenaphthylen-7-yl)-N-(1-methyl-1H-pyrazol-5-yl)pyrimidin-2-amine]	120000
Cn1nccc1Nc1nccc(-c2cc3n4c(nnc4c2)[C@@H](Cc2ccc(F)cc2)CO3)n1 [(R) I-44, 4-(3-(4-fluorobenzyl)-3,4-dihydro-5-oxa-1,2,2a^1-triazaacenaphthylen-7-yl)-N-(1-methyl-1H-pyrazol-5-yl)pyrimidin-2-amine]	< 20
CC(C)C[C@H]1COc2cc(-c3ccnc(Nc4ccnn4C)n3)cc3nnc1n23 [(R) I-45, 4-(3-isobutyl-3,4-dihydro-5-oxa-1,2,2a^1-triazaacenaphthylen-7-yl)-N-(1-methyl-1H-pyrazol-5-yl)pyrimidin-2-amine]	< 20
COc1ccc(C[C@H]2COc3cc(-c4ccnc(Nc5ccnn5C)n4)cc4nnc2n34)cc1F [(R) I-46, 4-(3-(3-fluoro-4-methoxybenzyl)-3,4-dihydro-5-oxa-1,2,2a^1-triazaacenaphthylen-7-yl)-N-(1-methyl-1H-pyrazol-5-yl)pyrimidin-2-amine]	< 20
Cn1nccc1Nc1cc(-c2cc3n4c(nnc4c2)[C@@H](Cn2cc(Cl)cn2)CCO3)ccn1 [(R) I-47, 4-(9-((4-chloro-1H-pyrazol-1-yl)methyl)-8,9-dihydro-7H-6-oxa-1,2,2a^1-triazabenzo[cd]azulen-4-yl)-N-(1-methyl-1H-pyrazol-5-yl)pyridin-2-amine]	< 20
Cn1nccc1Nc1cc(-c2cc3n4c(nnc4c2)[C@@H](Cc2ccc(Cl)cc2)CO3)ccn1 [(R) I-48, 4-(3-(4-chlorobenzyl)-3,4-dihydro-5-oxa-1,2,2a^1-triazaacenaphthylen-7-yl)-N-(1-methyl-1H-pyrazol-5-yl)pyridin-2-amine]	< 20
COc1ccc(C[C@H]2COc3cc(-c4ccnc(Nc5ccnn5C)n4)cc4nnc2n34)cc1 [(R) I-50, 4-(3-(4-methoxybenzyl)-3,4-dihydro-5-oxa-1,2,2a^1-triazaacenaphthylen-7-yl)-N-(1-methyl-1H-pyrazol-5-yl)pyrimidin-2-amine]	20
Cn1nccc1Nc1cc(-c2cc3n4c(nnc4c2)[C@@H](Cc2ccc(F)c(F)c2)CO3)ccn1 [(R) I-54, 4-(3-(3,4-difluorobenzyl)-3,4-dihydro-5-oxa-1,2,2a^1-triazaacenaphthylen-7-yl)-N-(1-methyl-1H-pyrazol-5-yl)pyridin-2-amine]	30
Cn1nccc1Nc1nccc(-c2cc3n4c(nnc4c2)[C@@H](Cn2cc(C4CC4)cn2)CCO3)n1 [(R) I-56, 4-(9-((4-cyclopropyl-1H-pyrazol-1-yl)methyl)-8,9-dihydro-7H-6-oxa-1,2,2a^1-triazabenzo[cd]azulen-4-yl)-N-(1-methyl-1H-pyrazol-5-yl)pyrimidin-2-amine]	< 20
Cn1nccc1Nc1nccc(-c2cc3n4c(nnc4c2)[C@H](Cc2ccc(F)cc2)CCO3)n1 [(R) I-58, 4-(9-(4-fluorobenzyl)-8,9-dihydro-7H-6-oxa-1,2,2a^1-triazabenzo[cd]azulen-4-yl)-N-(1-methyl-1H-pyrazol-5-yl)pyrimidin-2-amine]	< 20
COc1ccc(C[C@@H]2CC(=O)N(C)c3cc(-c4ccnc(Nc5ccnn5C)n4)cc4nnc2n34)cc1 [(R) I-62, 9-(4-methoxybenzyl)-6-methyl-4-(2-((1-methyl-1H-pyrazol-5-yl)amino)pyrimidin-4-yl)-8,9-dihydro-1,2,2a^1,6-tetraazabenzo[cd]azulen-7(6H)-one]	< 20
CCC[C@@H]1CC(=O)N(C)c2cc(-c3ccnc(Nc4ccnn4C)n3)cc3nnc1n23 [(R) I-64, 6-methyl-4-(2-((1-methyl-1H-pyrazol-5-yl)amino)pyrimidin-4-yl)-9-propyl-8,9-dihydro-1,2,2a^1,6-tetraazabenzo[cd]azulen-7(6H)-one]	183000
CN1C(=O)C[C@H](C2CC2)c2nnc3cc(-c4ccnc(Nc5ccnn5C)n4)cc1n23 [(R) I-65, 9-cyclopropyl-6-methyl-4-(2-((1-methyl-1H-pyrazol-5-yl)amino)pyrimidin-4-yl)-8,9-dihydro-1,2,2a^1,6-tetraazabenzo[cd]azulen-7(6H)-one]	660
Cn1nccc1Nc1nccc(-c2cc3n4c(nnc4c2)[C@H](Oc2ccc(F)cc2)CCO3)n1 [(R) I-66, 4-(9-(4-fluorophenoxy)-8,9-dihydro-7H-6-oxa-1,2,2a^1-triazabenzo[cd]azulen-4-yl)-N-(1-methyl-1H-pyrazol-5-yl)pyrimidin-2-amine]	2950
CN1C(=O)C[C@H](CC(F)(F)F)c2nnc3cc(-c4ccnc(Nc5ccnn5C)n4)cc1n23 [(R) I-71, 6-methyl-4-(2-((1-methyl-1H-pyrazol-5-yl)amino)pyrimidin-4-yl)-9-(2,2,2-trifluoroethyl)-8,9-dihydro-1,2,2a^1,6-tetraazabenzo[cd]azulen-7(6H)-one]	655
COc1ccc(C[C@@H]2CC(=O)N(C)c3cc(-c4ccnc(Nc5ccnn5C)c4)cc4nnc2n34)c(F)c1 [(R) I-74, 9-(2-fluoro-4-methoxybenzyl)-6-methyl-4-(2-((1-methyl-1H-pyrazol-5-yl)amino)pyridin-4-yl)-8,9-dihydro-1,2,2a^1,6-tetraazabenzo[cd]azulen-7(6H)-one]	< 20
CC(C)C[C@@H]1CC(=O)N(C)c2cc(-c3ccnc(Nc4ccnn4C)c3)cc3nnc1n23 [(R) I-75, 9-isobutyl-6-methyl-4-(2-((1-methyl-1H-pyrazol-5-yl)amino)pyridin-4-yl)-8,9-dihydro-1,2,2a^1,6-tetraazabenzo[cd]azulen-7(6H)-one]	3220
Cn1nccc1Nc1nccc(-c2cc3n4c(nnc4c2)[C@H](Oc2cncc(Cl)c2)CCO3)n1 [(R) I-77, 4-(9-((5-chloropyridin-3-yl)oxy)-8,9-dihydro-7H-6-oxa-1,2,2a^1-triazabenzo[cd]azulen-4-yl)-N-(1-methyl-1H-pyrazol-5-yl)pyrimidin-2-amine]	311
Cn1nccc1Nc1cc(-c2cc3n4c(nnc4c2)[C@H](Oc2cncc(Cl)c2)CCO3)ccn1 [(R) I-78, 4-(9-((5-chloropyridin-3-yl)oxy)-8,9-dihydro-7H-6-oxa-1,2,2a^1-triazabenzo[cd]azulen-4-yl)-N-(1-methyl-1H-pyrazol-5-yl)pyridin-2-amine]	4610
Cn1nccc1Nc1nccc(-c2cc3n4c(nnc4c2)[C@@H](Cc2ccc(F)c(Cl)c2)CO3)n1 [(R) I-82, 4-(3-(3-chloro-4-fluorobenzyl)-3,4-dihydro-5-oxa-1,2,2a^1-triazaacenaphthylen-7-yl)-N-(1-methyl-1H-pyrazol-5-yl)pyrimidin-2-amine]	600
CN1C(=O)C[C@@H](Cc2ccc(Cl)cn2)c2nnc3cc(-c4ccnc(Nc5ccnn5C)n4)cc1n23 [(R) I-84, 9-((5-chloropyridin-2-yl)methyl)-6-methyl-4-(2-((1-methyl-1H-pyrazol-5-yl)amino)pyrimidin-4-yl)-8,9-dihydro-1,2,2a^1,6-tetraazabenzo[cd]azulen-7(6H)-one]	102
COc1ccc(C[C@@H]2CC(=O)N(C)c3cc(-c4ccnc(Nc5ccnn5C)n4)cc4nnc2n34)c(F)c1 [(R) I-85, 9-(2-fluoro-4-methoxybenzyl)-6-methyl-4-(2-((1-methyl-1H-pyrazol-5-yl)amino)pyrimidin-4-yl)-8,9-dihydro-1,2,2a^1,6-tetraazabenzo[cd]azulen-7(6H)-one]	< 20
CC(C)[C@H]1CC(=O)N(C)c2cc(-c3ccnc(Nc4ccnn4C)c3)cc3nnc1n23 [(R) I-87, 9-isopropyl-6-methyl-4-(2-((1-methyl-1H-pyrazol-5-yl)amino)pyridin-4-yl)-8,9-dihydro-1,2,2a^1,6-tetraazabenzo[cd]azulen-7(6H)-one]	6940
Cn1nccc1Nc1nccc(-c2cc3n4c(nnc4c2)[C@@H](Cc2cccc(Cl)c2)CO3)n1 [(R) I-88, 4-(3-(3-chlorobenzyl)-3,4-dihydro-5-oxa-1,2,2a^1-triazaacenaphthylen-7-yl)-N-(1-methyl-1H-pyrazol-5-yl)pyrimidin-2-amine]	< 20
Cn1nccc1Nc1cc(-c2cc3n4c(nnc4c2)[C@@H](Cn2cc(C(F)(F)F)cn2)CCO3)ccn1 [(R) I-89, N-(1-methyl-1H-pyrazol-5-yl)-4-(9-((4-(trifluoromethyl)-1H-pyrazol-1-yl)methyl)-8,9-dihydro-7H-6-oxa-1,2,2a^1-triazabenzo[cd]azulen-4-yl)pyridin-2-amine]	< 20
Cn1nccc1Nc1nccc(-c2cc3n4c(nnc4c2)[C@H](Oc2ccccc2)CCO3)n1 [(R) I-90, N-(1-methyl-1H-pyrazol-5-yl)-4-(9-phenoxy-8,9-dihydro-7H-6-oxa-1,2,2a^1-triazabenzo[cd]azulen-4-yl)pyrimidin-2-amine]	942
